Here are results for 47 molecules from PubChem BioAssay AID652130 (The Scripps Research Institute Molecular Screening Center, 2013).

What is called IC50 is the concentration that inhibits the measured activity by half.

The source made the active and inactive calls. How the calls were made is not given here.

This assay deals with Perilipin-5 (Homo sapiens) + 1-acylglycerol-3-phosphate O-acyltransferase ABHD5 (Homo sapiens) (UniProt Q00G26+Q8WTS1). Put plainly: PubChem AID 652130. The settings on record: ABHD5/PLIN5 interaction, luminescence, HEK293T-produced proteins.
Perilipin-5 (Homo sapiens) + 1-acylglycerol-3-phosphate O-acyltransferase ABHD5 (Homo sapiens), sequence (Q00G26 whole entry, looked up): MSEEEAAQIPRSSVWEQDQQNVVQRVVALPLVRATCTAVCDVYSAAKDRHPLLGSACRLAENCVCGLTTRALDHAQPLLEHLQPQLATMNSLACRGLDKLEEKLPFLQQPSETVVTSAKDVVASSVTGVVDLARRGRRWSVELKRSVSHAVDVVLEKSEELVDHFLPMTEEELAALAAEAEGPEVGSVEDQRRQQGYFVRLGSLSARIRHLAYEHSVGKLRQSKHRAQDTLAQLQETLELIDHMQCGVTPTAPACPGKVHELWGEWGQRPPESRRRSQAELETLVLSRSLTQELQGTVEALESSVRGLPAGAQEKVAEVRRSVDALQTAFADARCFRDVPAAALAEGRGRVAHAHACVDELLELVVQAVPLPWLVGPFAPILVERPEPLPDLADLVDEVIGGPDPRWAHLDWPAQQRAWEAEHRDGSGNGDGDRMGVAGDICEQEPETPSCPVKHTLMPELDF
Perilipin-5 (Homo sapiens) + 1-acylglycerol-3-phosphate O-acyltransferase ABHD5 (Homo sapiens), sequence (Q8WTS1 whole entry, looked up): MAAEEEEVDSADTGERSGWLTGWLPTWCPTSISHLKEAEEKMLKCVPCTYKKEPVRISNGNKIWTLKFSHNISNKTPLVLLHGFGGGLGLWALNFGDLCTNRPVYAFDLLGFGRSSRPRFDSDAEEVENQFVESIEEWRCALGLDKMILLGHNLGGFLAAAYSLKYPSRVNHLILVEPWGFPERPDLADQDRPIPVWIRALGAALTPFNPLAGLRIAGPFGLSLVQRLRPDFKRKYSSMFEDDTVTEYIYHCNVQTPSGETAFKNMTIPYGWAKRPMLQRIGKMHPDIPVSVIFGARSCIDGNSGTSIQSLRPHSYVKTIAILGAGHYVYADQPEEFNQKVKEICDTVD
In the case of `CCCCCCNC(=O)Nc1ccc2c(c1)Sc1ccccc1C(=O)N2C`, the IC50 is > 39.8 µM (inactive).
As for `CC(NC(=O)CN1CCN(S(=O)(=O)c2ccc3c(c2)OCCCO3)CC1)c1cc2ccccc2o1` (configuration not stated), the IC50 is > 39.8 µM (inactive).
As for `CC(C)N1C(=O)c2ccccc2Oc2ccc(NC(=O)c3ccccc3)cc21`, the IC50 is > 39.8 µM (inactive).
The value for `O=C(CCc1c[nH]c2ccccc12)N1CCN(S(=O)(=O)c2ccc3c(c2)OCCO3)CC1` was > 39.8 µM (inactive); that for `O=C(CCc1nc2ccccc2s1)N1CCN(S(=O)(=O)c2ccc3c(c2)OCCO3)CC1` was “inactive”.
The value for `COc1ccc(CC(=O)N2CCCN(S(=O)(=O)c3ccc(C)cc3)CC2)cc1OC` was > 39.8 µM (inactive).
In the case of `Cc1ccc2cc(CC(=O)N3CCN(S(=O)(=O)c4ccc5c(c4)OCCO5)CC3)oc2c1`, the IC50 result was “inactive”.
The value for `CCc1ccc2c(CC(=O)N3CCN(S(=O)(=O)c4ccc5c(c4)OCCO5)CC3)coc2c1` was 3.46 µM; that for `Cc1ccc(CS(=O)(=O)c2ncc(Cl)c(C(=O)N3CCN(C)CC3)n2)cc1` was 5.9 µM.
The figure for `CCCS(=O)(=O)c1ccc(Cl)c(C(=O)Nc2ccc(C(=O)OCC)cc2)c1` is 6.17 µM.
Consider `Cc1ccc(NC(=O)c2nc(S(C)(=O)=O)ncc2Cl)cc1`, for which the IC50 was 3.83 µM.
`O=C(Cc1cccc(F)c1)N1CCN(S(=O)(=O)c2ccc3c(c2)OCCO3)CC1`: the IC50 was > 39.8 µM (inactive).
Take `CN(C)CCCN(C(=O)C1CCCCC1)c1nc2cc(Cl)ccc2s1`: the IC50 is > 39.8 µM (inactive).
The value for `CN1C(=O)c2ccccc2Oc2ccc(NC(=O)c3cc4ccccc4[nH]3)cc21` was > 39.8 µM (inactive); that for `Cc1ccc2c(CC(=O)N3CCN(S(=O)(=O)c4ccc5c(c4)OCCCO5)CC3)coc2c1C` was 4.85 µM.
The figure for `O=C(C1COc2ccccc2O1)N1CCN(S(=O)(=O)c2ccc3c(c2)OCCO3)CC1` (configuration not stated) is > 39.8 µM (inactive); for `CN(C)CCCN(C(=O)CCc1ccccc1)c1nc2ccc(Cl)cc2s1` it is > 39.8 µM (inactive); for `Cc1ccc(CS(=O)(=O)c2ncc(Cl)c(C(=O)Nc3cccc(C(F)(F)F)c3)n2)cc1` it is 2.46 µM.
The value for `O=C(Nc1ccc2ccccc2c1)c1nc(S(=O)(=O)Cc2ccccc2)ncc1Cl` was 2.36 µM; that for `NS(=O)(=O)c1ccc(NC(=O)c2nc(S(=O)(=O)Cc3ccccc3)ncc2Cl)cc1` was 4.68 µM.
Consider `CN(C)CCCN(C(=O)Cc1ccc(F)cc1)c1nc2ccc(Cl)cc2s1`, for which the IC50 is > 39.8 µM (inactive).
For `CCCC(=O)Nc1ccc2c(c1)C(=O)N(C)c1ccccc1O2`, the IC50 is > 39.8 µM (inactive).
The value for `COc1ccc(CC(=O)N2CCN(S(=O)(=O)c3ccc4c(c3)OCCCO4)CC2)cc1` was > 39.8 µM (inactive); that for `CN1C(=O)c2ccccc2Oc2ccc(NC(=O)c3cccs3)cc21` was > 39.8 µM (inactive); that for `Cc1ccc(CS(=O)(=O)c2ncc(Cl)c(C(=O)Nc3cccc4ccccc34)n2)cc1` was 2.7 µM.
The value for `CN(C(=O)c1nc(S(C)(=O)=O)ncc1Cl)c1ccccc1` was 3.65 µM.
The value for `CN1C(=O)c2ccccc2Sc2ccc(NC(=O)NCCc3cccs3)cc21` was 5.6 µM; that for `CCS(=O)(=O)c1ncc(Cl)c(C(=O)Nc2ccc(S(N)(=O)=O)cc2)n1` was 8.4 µM; that for `CCCC(=O)Nc1ccc2c(c1)C(=O)N(C)c1cc(C)ccc1O2` was > 39.8 µM (inactive).
`CCCCCNC(=O)Nc1ccc2c(c1)Sc1ccccc1C(=O)N2C`: the IC50 is > 39.8 µM (inactive).
For `CN(C)CCCN(C(=O)c1cc2ccccc2oc1=O)c1nc2ccc(Cl)cc2s1`, the IC50 is > 39.8 µM (inactive).
The value for `O=C(c1nc(S(=O)(=O)Cc2ccccc2)ncc1Cl)N(Cc1ccccc1)Cc1ccco1` was 1.76 µM.
The entry for `CCCCCCCNC(=O)Nc1ccc2c(c1)Sc1ccccc1C(=O)N2C` is “inactive”; for `CCCC(=O)N(CCCN1CCOCC1)c1nc2ccc(Cl)cc2s1` it is > 39.8 µM (inactive); for `CN1C(=O)c2ccccc2Sc2ccc(NC(=O)NCCc3ccccc3)cc21` it is 4.37 µM.
The value for `COc1ccc(CCNC(=O)c2nc(S(=O)(=O)Cc3ccc(F)cc3)ncc2Cl)cc1OC` was 2.82 µM.
As for `O=C(Cc1ccc2c(c1)CCCC2)N1CCN(S(=O)(=O)c2ccc3c(c2)OCCO3)CC1`, the IC50 result is “inactive”.
Turning to `O=C(CCn1cnc2ccccc21)N1CCN(S(=O)(=O)c2ccc3c(c2)OCCO3)CC1`, the IC50 is > 39.8 µM (inactive).
`CN1C(=O)c2ccccc2Sc2ccc(NC(=O)NCCCc3ccccc3)cc21`: the IC50 is 1.99 µM.
In the case of `Cc1ccc(CS(=O)(=O)c2ncc(Cl)c(C(=O)Nc3nnc(C(C)C)s3)n2)cc1`, the IC50 is > 39.8 µM (inactive).
As to `Cc1ccc(CS(=O)(=O)c2ncc(Cl)c(C(=O)NCc3ccc4c(c3)OCO4)n2)cc1`, the IC50 is 3.36 µM.
As to `CCCS(=O)(=O)c1ncc(Cl)c(C(=O)Nc2ccc(C(=O)OC)cc2)n1`, the IC50 is 6.37 µM.
As for `CS(=O)(=O)c1ncc(Cl)c(C(=O)Nc2ccc(C(F)(F)F)cc2)n1`, the IC50 is 1.62 µM.
The figure for `CN(C)CCCN(C(=O)C1CCCCC1)c1nc2cc(Br)ccc2s1` is > 39.8 µM (inactive); for `CCCNC(=O)Nc1ccc2c(c1)N(CC)C(=O)c1ccccc1S2` it is “inactive”; for `CCS(=O)(=O)c1ncc(Cl)c(C(=O)Nc2ccc(C)cc2)n1` it is 4.23 µM.
The figure for `COc1ccc(OCC(=O)Nc2ccc3c(c2)N(C(C)C)C(=O)c2ccccc2O3)cc1` is > 39.8 µM (inactive).
